# Experimental data reported in PMC6982741, “Design, Synthesis and Study of Nitrogen Monoxide Donors as Potent Hypolipidaemic and Anti-Inflammatory Agents” (Molecules, 2019).
# Where two headings read alike, the source gives them in different places. Marks after values point to notes of the source that are not given here.
# Assays:
# [1] = target: T1, soybean lipoxygenase 1-B (Glycine max, UniProt P08170); assay: In vitro soybean lipoxygenase inhibition, linoleate as substrate; format: biochemical; settings: sodium linoleate 100 μM; after 7 min of incubation; pH 9.0, 28 °C
# T1 construct: purchased Sigma (St. Louis, MO, U.S.A.)
# T1 sequence (P08170 1-839): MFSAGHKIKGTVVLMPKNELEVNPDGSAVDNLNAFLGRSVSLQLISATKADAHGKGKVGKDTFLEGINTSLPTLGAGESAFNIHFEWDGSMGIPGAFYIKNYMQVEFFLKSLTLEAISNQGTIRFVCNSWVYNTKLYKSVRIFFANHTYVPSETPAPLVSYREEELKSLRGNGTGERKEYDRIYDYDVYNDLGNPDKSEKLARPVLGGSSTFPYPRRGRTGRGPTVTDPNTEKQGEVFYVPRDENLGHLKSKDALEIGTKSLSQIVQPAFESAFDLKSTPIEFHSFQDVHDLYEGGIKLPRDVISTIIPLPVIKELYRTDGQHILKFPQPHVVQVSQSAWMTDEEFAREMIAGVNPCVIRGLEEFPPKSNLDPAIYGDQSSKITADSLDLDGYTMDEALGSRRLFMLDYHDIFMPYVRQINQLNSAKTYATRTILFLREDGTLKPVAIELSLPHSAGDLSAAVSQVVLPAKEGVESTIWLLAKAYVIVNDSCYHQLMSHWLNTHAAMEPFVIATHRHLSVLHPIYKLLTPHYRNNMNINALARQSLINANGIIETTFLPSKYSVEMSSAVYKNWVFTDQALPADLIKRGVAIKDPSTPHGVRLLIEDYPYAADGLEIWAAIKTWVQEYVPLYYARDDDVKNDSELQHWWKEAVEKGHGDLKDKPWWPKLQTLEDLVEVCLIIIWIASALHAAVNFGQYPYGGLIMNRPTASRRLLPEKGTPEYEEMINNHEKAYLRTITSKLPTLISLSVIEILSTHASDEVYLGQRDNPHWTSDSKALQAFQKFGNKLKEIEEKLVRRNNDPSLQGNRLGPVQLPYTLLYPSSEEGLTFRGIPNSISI
# Method: The reaction mixture contained the examined compounds (in absolute ethanol, 1–300 μM), soybean lipoxygenase (in saline, 250 u/mL) and sodium linoleate (100 μM), in Tris–HCl buffer, pH 9.0. The reaction was monitored for 7 min at 28 °C, recording the absorbance at 234 nm. […]
# [2] = In vitro nitrogen monoxide release (Griess reagent)
# Method: Due to their poor aqueous solubility, compounds 1, 3-7 and 9 were dissolved in 7/3 (v/v) mixture of DMSO/water at various concentrations and incubated overnight at room temperature in the presence of cadmium. S-nitroso-N-acetylpenicillamine (SNAP) was dissolved either in DMSO/water 7/3 or in water and treated as above.
# Aliquots were taken from each sample and added to an equal volume of N-naphthylaminoethylamine (0.2%) and sulfanilamide (2%) solution in 3 N hydrochloric acid (Griess reagent). Appropriate sodium nitrite solutions in the same DMSO/water mixture were used for the construction of the standard curve and values were identical to those obtained with aqueous solutions. Nitric oxide release was estimated spectrophotometrically (540 nm).
# [3] = test system: hyperlipidaemic rats; assay: Triton WR1339 (tyloxapol) induced hyperlipidaemia in rats; format: in vivo, Wistar rats; settings: tyloxapol 200 mg/kg i.p.; for inhibition in vivo at 150 µmol/kg / inhibition in vivo at 300 µmol/kg / inhibition in vivo at 500 µmol/kg: Rattus norvegicus, ip, 24 h; for inhibition in vivo at 300 µmol/kg: 300 μmol/kg i.p.; for inhibition in vivo at 500 µmol/kg: 500 μmol/kg i.p.
# From the text: The pleiotropic effects of statins, used as hypolipidaemic drugs, include antioxidant ability and direct increase of eNOS activity, in addition to inhibition of 3-hydroxy-3-methylglutaryl coenzyme A (HMG-CoA) reductase. […] The systemic administration of Triton-WR1339 (tyloxapol) to rats induces a biphasic elevation of plasma cholesterol, atherogenic VLDL cholesterol and LDL cholesterol, as well as triglyceride levels. […] Agents shown to be active in phase I are considered to interfere with cholesterol biosynthesis.
# κ-Carrageenan and lipoxygenase type I-B from soybean were purchased from Sigma (St. Louis, MO, U.S.A.). For the in vivo experiments, Wistar rats (180–220 g, 3–4 months old) were kept in the Centre of the School of Veterinary Medicine (EL54 BIO42), Aristotelian University of Thessaloniki, which is registered by the official state veterinary authorities (presidential degree 56/2013, in harmonization with the European Directive 2010/63/EEC). The experimental protocols were approved by the Animal Ethics Committee of the Prefecture of Central Macedonia (no. 270079/2500).
# Hyperlipidaemia was induced by the i.p. administration of Triton WR 1339 (200 mg/kg) to rats. […] Blood was taken from the aorta after 24 h, for the determination of plasma total cholesterol, LDL-cholesterol and triglyceride concentrations, using commercial kits.
# [4] = test system: carrageenan-induced rat paw oedema; assay: Carrageenan-induced rat paw oedema; format: in vivo, Wistar rats; settings: 0.15 mmol/kg i.p., oedema after 3.5 h, vs carrageenan-only controls; for inhibition in vivo at 150 µmol/kg: Rattus norvegicus, ip, read-out: % Oedema Reduction
# Method: The carrageenan-induced paw oedema is a well-known and widely used model of acute inflammation. The response to carrageenan inflammation may be divided into three phases. In the first phase (after 1.5 h), histamine and serotonin are released, the second phase (1.5–2.5 h after carrageenan administration) is mediated by kinins, whereas, in the third phase, more than two hours post administration, neutrophil infiltration, prostaglandin production and release of pro-inflammatory cytokines are involved. In this work, oedema was measured 3.5 h post injection.
# κ-Carrageenan and lipoxygenase type I-B from soybean were purchased from Sigma (St. Louis, MO, U.S.A.).
# The tested compounds (in water with a few drops of Tween 80) were given i.p. (0.15 mmol/kg) to rats, just after the i.d. injection of 0.1 mL of an aqueous carrageenan solution (1% w/v) in the hind paw of rats. The produced oedema, after 3.5 h, was estimated as paw weight increase.
# [5] = test system: rat hepatic microsomal membrane lipid peroxidation; assay: Fe2+/ascorbate induced lipid peroxidation, TBA reactive material; format: biochemical; settings: after 45 min of incubation; read-out: Inhibition of Lipid Peroxidation IC50
# Method: (§1) The antioxidant activity of compounds was estimated by the inhibition of rat hepatic microsomal membrane lipid peroxidation, induced by Fe^+2/ascorbate, estimated as 2-thiobarbituric acid (TBA) reactive material, and by their interaction with the N-centred 1,1-diphenyl-2-picrylhydrazyl (DPPH) stable free radical. […] The percent interaction with DPPH and the IC50 values of compounds 7–9 on rat hepatic microsomal membrane lipid peroxidation, after 45 min of incubation is shown in Table 4.
# The peroxidation of heat-inactivated (90°, 90 s) rat liver microsomal fraction was induced by ascorbic acid (0.2 mM) and ferrous sulphate (10 μΜ). The studied compounds, in dimethylsulfoxide, were added at concentrations 1 μM–1 mM. Aliquots were taken from the incubation mixture (37 °C) for 45 min. Lipid peroxidation was assessed spectrophotometrically (535/600 nm) as 2-thiobarbituric acid reactive material. All compounds and solvents were found not to interfere with the assay.
# [6] = Interaction with the stable radical DPPH; settings: DPPH 200 μΜ, after 30 min
# Method: as §1
# Compounds (in absolute ethanol, final concentrations 25–200 μM) were added to an ethanolic solution of DPPH (final concentration 200 μM) at room temperature (22 ± 2 °C). Absorbance (517 nm) was recorded after 30 min.
# [7] = compound 31.25 μM, DMSO/water 7/3, overnight, cadmium
# [8] = compound 62.5 μM, DMSO/water 7/3, overnight, cadmium
# [9] = compound 125 μM, DMSO/water 7/3, overnight, cadmium
# [10] = compound 250 μM, DMSO/water 7/3, overnight, cadmium
# [11] = compound 500 μM, DMSO/water 7/3, overnight, cadmium
# [12] = 150 μmol/kg i.p., plasma after 24 h, read-out: % Reduction LDL-C (LDL cholesterol)
# [13] = 150 μmol/kg i.p., plasma after 24 h, read-out: % Reduction TC (total cholesterol)
# [14] = 150 μmol/kg i.p., plasma after 24 h, read-out: % Reduction TG (triglycerides)
# [15] = read-out: % Reduction LDL-C (LDL cholesterol)
# [16] = read-out: % Reduction TC (total cholesterol)
# [17] = read-out: % Reduction TG (triglycerides)
IC50 [1],Compound,"NO Release [2, 7]","NO Release [2, 8]","NO Release [2, 9]","NO Release [2, 10]","NO Release [2, 11]","inhibition in vivo at 150 µmol/kg [3, 12]","inhibition in vivo at 150 µmol/kg [3, 13]","inhibition in vivo at 150 µmol/kg [3, 14]",inhibition in vivo at 150 µmol/kg [4],further results
46 µM,"CC(C)Cc1ccc(C(C)C(=O)OCCO[N+](=O)[O-])cc1 (racemic) [Compound 1, (±)-2-(Nitrooxy)ethyl 2-(4-isobutylphenyl)propanoate]",7 μΜ,17 μΜ,40 μΜ,82 μΜ,116 μΜ,80%,62.2%,30.1%,76%,–
24 µM,"CC(C)Cc1ccc(C(C)C(=O)OCCc2ccc([N+](=O)[O-])cc2)cc1 (racemic) [Compound 2, (±)-4-Nitrophenethyl 2-(4-isobutylphenyl)propanoate]",–,–,–,–,–,–,–,–,53%,–
86 µM,"CC(C(=O)OCCO[N+](=O)[O-])c1cccc(C(=O)c2ccccc2)c1 (racemic) [Compound 5, (±)-2-(Nitrooxy)ethyl 2-(3-benzoylphenyl)propanoate]",4 μΜ,11 μΜ,26 μΜ,57 μΜ,100 μΜ,57.8%,46.6%,40.2%,75%,–
> 300 µM,"COc1ccc2cc(C(C)C(=O)OCCO[N+](=O)[O-])ccc2c1 (single isomer, unassigned; (+)) [Compound 4, (+)-2-(Nitrooxy)ethyl 2-(6-methoxynaphthalen-2-yl)propanoate]",2.5 μΜ,7 μΜ,17 μΜ,37 μΜ,73 μΜ,84.6%,80%,38.9%,70%,% Oedema Reduction [4]: 70 ** %
220 µM,"O=C(/C=C/c1ccccc1)OCCO[N+](=O)[O-] [Compound 6, (E)-2-(Nitrooxy)ethyl cinnamate]",5 μΜ,11 μΜ,22 μΜ,51 μΜ,98 μΜ,74.8%,70.9%,54.4%,61%,–
–,"CC(C)Cc1ccc(C(C)C(=O)O)cc1 (stereo not shown) [Ibuprofen, reference compound]",–,–,–,–,–,–,–,–,36%,"inhibition in vivo at 300 µmol/kg [3, 15]: 41.6%; inhibition in vivo at 300 µmol/kg [3, 16]: 41%; inhibition in vivo at 300 µmol/kg [3, 17]: 38%"
–,"COc1ccc2c(c1)c(CC(=O)O)c(C)n2C(=O)c1ccc(Cl)cc1 [Indomethacin, reference compound]",–,–,–,–,–,–,–,–,42%,–
–,"COc1ccc2cc([C@H](C)C(=O)O)ccc2c1 [Naproxen, reference compound]",–,–,–,–,–,–,–,–,11%,"inhibition in vivo at 500 µmol/kg [3, 15]: 25.5%; inhibition in vivo at 500 µmol/kg [3, 16]: 53%; inhibition in vivo at 500 µmol/kg [3, 17]: 43.5%"
–,"CCC(C)(C)C(=O)O[C@H]1C[C@@H](C)C=C2C=C[C@H](C)[C@H](CC[C@@H]3C[C@@H](O)CC(=O)O3)[C@H]21 [Simvastatin, reference compound]",–,–,–,–,–,70%,–,–,–,"% Reduction TG (triglycerides) ([3]; 150 μmol/kg i.p., plasma after 24 h): no effect"
> 300 µM,"Cc1c(C)c2c(c(C)c1O)CCC(C)(C(=O)O)O2 (stereo not shown) [Trolox, 6-hydroxy-2,5,7,8-tetramethylchroman-2-carboxylic acid, reference compound]",–,–,–,–,–,–,–,–,–,IC50 [5]: 25 µM; Percent Interaction with DPPH ([6]; compound 50 μΜ): 38%; Percent Interaction with DPPH ([6]; compound 100 μΜ): 90%; Percent Interaction with DPPH ([6]; compound 200 μΜ): 92%
–,"S-nitroso-N-acetylpenicillamine [SNAP, reference compound]",–,–,–,–,–,–,–,–,–,"NO Release ([2]; 100 μM compound, in water): 56.7 μΜ; NO Release ([2]; per 100 μM compound, DMSO/water 7/3): 56.3 μΜ"
